Laboratory results reported in patent US20160243096A1, “METHODS OF TREATING ORTH[…]” (Emergent Virology LLC, priority 2009, published 2016).

What was measured:
[1] = system: Influenza A virus H3N2 (Hong Kong); experiment: Inhibition of infectivity / virus yield reduction in MDCK cells; assay type: cell-based; conditions: virus yield reduced by 1 log10, 3 days
Protocol: Table provides data for inhibition of infectivity of Influenza A virus H3N2 (Hong Kong) for NB-DNJ (UV-1), NN-DNJ (UV-2), N7-O-DNJ (UV-3), N9-DNJ (UV-4) and NAP-DNJ (UV-5).
Procedure. The compounds were screened for inhibition of generation of infectious virus was conducted on the UV compounds at concentrations up to 500 μM. The influenza virus, Influenza A H3N2, Brisbane/10/2007 strain was evaluated for virus inhibition. MDCK cells (Madin Darby canine kidney cell line) obtained from American Type Culture Collection (ATCC, Manassas, Va.). Cells were cultured in U1traMDCK, supplemented with 2 mM L-glutamine, 1 μg/ml TPCK-treated trypsin and 100 U/ml penicillin, 100 μg/ml streptomycin in cell culture treated 24-well flat bottom plates at 37° C. in a 5% CO2 incubator for 24 hr or until 80% confluent prior to assay. Cells were pretreated with compounds in a final concentration of 0.5% DMSO for 1 hr followed by addition of virus inoculums. Three wells per virus are saved for a virus-only control. Only medium is added in exchange for compound in these wells, and virus is added after the initial 1 hr incubation. Three days later virus containing supernatants were collected and effect on reduction of virus yield are tested by assaying frozen and thawed eluates from each well for virus titer by serial dilution onto monolayers of MDCK susceptible cells.

[2] = system: INFV A H1N1 (strain A/Texas); experiment: Influenza in vivo study: survival of infected mice; set-up: species or system Balb/c mice; conditions: ~5 LD50 intranasal, monitored 15 days
Protocol: UV-4 was administered as a free drug dissolved in acidic water. The compound was given at 100 mg/kg and 10 mg/kg by the oral route (intragastric via oral gavage—IG) twice daily. Balb/c mice received the compound for 10 days. Mice were infected with INFV A H1N1 (strain A/Texas) intranasally with ˜5 LD50 30 minutes following the first iminosugar dose.
(§1) Animals were monitored for 15 days. Animals were weighed once per day, and given health scores 2X per day. Animals displaying severe illness (as determined by 30% weight loss, extreme lethargy, ruffled coat, or paralysis) were euthanized.

[3] = Iminosugar safety study in mice; assay type: in vivo, BALB/c and C57/B1/6 mice; conditions: for weight loss compared to vehicle only control: BALB/c and C57/B1/6 mice, oral 100 and 10 mg/kg twice a day for 7 days; for clinical signs: highest concentration (100 mg/kg twice a day, 7 days)
Protocol: Methods and Discussion: BALB/c and C57/B1/6 mice were given oral suspensions of UV-1, UV-4, UV-5, twice a day for seven days, in 100 ul per mouse at 100 and 10 mg/kg (2 mg and 0.2 mg/mouse, respectively) 8 hours apart for 7 days, and then monitored for weight loss and general health. […] The results of these experiments are in FIG. 6.

[4] = system: INFV A H1N1 (strain A/Texas); experiment: Second influenza in vivo study: survival after H1/N1 (Texas) virus challenge; set-up: species or system Balb/c mice; conditions: 100 mg/kg TID oral for 10 days, ~1 LD90
Protocol: UV-4 was administered to the treated mice as a free drug dissolved in acidic water by the oral route (intragastric via oral gavage—IG) 100 mg/kg, TID for 10 days. The control mice received water orally, TID, instead of UV-4. Balb/c mice were used both for the treated mice and the control mice. Each mouse was microchipped for individual identity.
Mice were infected with INFV A H1N1 (strain A/Texas) intranasally with ˜1 LD90.
as §1, with “2×” for “2X”, “euthanized. The endpoint was considered a death of the animal or a more than 30% weight loss.” for “euthanized.”
The studied mice include the following groups (10 mice per group):
1) 1 hr pre-treatment. These mice received their first UV-4 dose 1 hr before being infected with INFV A H1N1 (strain A/Texas).
2) 24 hr post-treatment. These mice received their first UV-4 dose 24 hr after being infected with INFV A H1N1 (strain A/Texas).
3) 48 hr post treatment. These mice received their first UV-4 48 hr after being infected with INFV A H1N1 (strain A/Texas).
4) 96 hr post treatment. These mice received their first UV-4 96 hr after being infected with INFV A H1N1 (strain A/Texas).

| Structure (SMILES) | IC90 [1] [nM] | weight loss compared to vehicle only control [3] | also measured |
| --- | --- | --- | --- |
| CCCCCCCCCN1C[C@H](O)[C@@H](O)[C@H](O)[C@H]1CO [UV-2, N-Nonyl deoxynojirimycin] | 200 |  |  |
| COCCCCCCCCCN1C[C@H](O)[C@@H](O)[C@H](O)[C@H]1CO [UV-4, N-(9-Methoxynonyl)deoxynojirimycin] | 200 | did not show any significant signs of weight loss | survival rate ([2]; 10 mg/kg BID oral gavage for 10 days): 90%; survival rate ([2]; 100 mg/kg BID oral gavage for 10 days): 90%; survival ([4]; first dose 1 hr before infection): 100%; survival ([4]; first dose 24 hr after infection): 100%; survival ([4]; first dose 48 hr after infection): 90%; survival ([4]; first dose 96 hr after infection): 90% |
| CCCCN1C[C@H](O)[C@@H](O)[C@H](O)[C@H]1CO [UV-1, N-Butyl deoxynojirimycin] | 20000 | did not show any significant signs of weight loss |  |
| CCCOCCCCCCN1C[C@H](O)[C@@H](O)[C@H](O)[C@H]1CO [UV-3, N-(7-Oxadecyl)deoxynojirimycin] | 200 |  |  |
| [N-]=[N+]=Nc1ccc(NCCCCCCN2C[C@H](O)[C@@H](O)[C@H](O)[C@H]2CO)c([N+](=O)[O-])c1 [UV-5, N-(N-{4′-azido-2′-nitrophenyl}-6-aminohexyl)deoxynojirimycin] | 200 | did not show any significant signs of weight loss | clinical signs ([3]; BALB/c mice): signs of diarrhea, red urine, and a ruffled appearance; clinical signs ([3]; C57/B1/6 mice): these same symptoms but without the ruffled look |
